# In patent US20120114636A1, “LOW MOLECULAR WEIGHT CYCLIN E (LMW-E) AS A BIOMARKER FOR PERSONALIZATION OF CANCER THERAPIES” (The Board of Regents of the University of Texas System, priority 2009, published 2012):
# Like-named read-outs stand apart in the source and are kept apart here.
# Legend:
# Format in all cases: cell-based, human
# [1] = test system: MCF-7/Ac1 cells; experiment: Cell cycle analysis by flow cytometry (PI); details: letrozole with 25 nM AD, concentration not given
# Procedure: Cell cycle analysis. MCF-7/Ac1 cells were cultured in estrogen-deprived media with or without 25 nM 4-androstenedione, and treated with different concentrations of aromatase inhibitors. Untreated and drug treated cells were collected 72 hours later for flow cytometry and lysates were prepared for western blot and kinase assays.
# (§1) Flow cytometry analysis. Cells were pelleted and resuspended in 1.5 ml of PBS, then fixed in 3.5 ml of 95% ethanol overnight at −20° C. After being washed, the pellets were resuspended in a solution of PBS containing 10 μg/ml propidium iodide, 20 μg/ml RNase A, 0.5% Tween 20, and 0.5% BSA and incubated at 37° C. for 30 min. The profiles of cells in the G0-G1, S, and G2-M phases of the cell cycle were analyzed at the M. D. Anderson Cancer Center Cytometry Core Facility on a FACS Caliber machine equipped with Cellquest or ModFit software.
# FIGS. 22A-22C show the effect of aromatase inhibitor treatment on proliferative response and cell cycle distribution of MCF-7/Ac1 cells. Cells were cultured in IMEM with 10% charcoal-stripped serum medium (CSSM) without phenol red and with 600 μg/ml of G418 for 4 days before plating. Cells (100,000) were seeded in 100 mm dishes and, 24 hrs later, were exposed for 3 days to the specific treatment. […] Cell growth is expressed as the percentage of the cells compared with the control cells (25 nM AD treated cells, 575,000 cells at day 3). Columns, mean of two to three experiments, each in triplicates; bars, S.D. *, P<0.05, when compared to cells only treated with 25 nM AD; n.s, not significant. CSSM, untreated cells cultured in charcoal-stripped serum medium without phenol red and with 600 μg/ml of G418.
# [2] = test system: cyclin E-associated kinase activity in MCF-7/Ac1 cells; experiment: Cyclin E-associated kinase assay (histone H1); details: with 25 nM AD, 3 days
# Procedure: Immunoprecipitation and Immunoblotting. Two hundred fifty μg of cell extracts were used per immunoprecipitation with polyclonal antibody to cyclin E or polyclonal antibody to CDK2, coupled to protein A beads. After being washed, the immunoprecipitates were subjected to electrophoresis in 13% gels, transferred to Immobolin P, blocked, and incubated with the indicated antibodies as already described.
# MCF-7/Ac1 cells were treated with the indicated concentrations of letrozole and AD for 3 days. Cyclin E kinase assays were performed by immunoprecipitating equal amounts of cell lysate (250 μg) with monoclonal antibodies to cyclin E coupled to protein A beads, using histone H1 as substrate. […] The same cell lysates were subjected to western blot analysis (50 μg of protein) with the indicated antibodies. […] The same cell lysates were first immunoprecipitated with cyclin E followed by western blot for p21 and p27. […] The same cell lysates were first immunoprecipitated with CDK2 followed by western blot for p21 and p27. The levels of proteins were measured by densitometric scanning of the corresponding bands and normalized using actin values. The values indicated at the bottom were compared to the values obtained with untreated cells.
# [3] = test system: MCF-7/Ac1 cells; experiment: Cell number of adenovirus-infected cells (LacZ, cyclin EL, T1, T2); details: for inhibition at 1 µM: Homo sapiens, MCF7, 1 μM letrozole, read-out: inhibition of AD-induced growth
# Source text: (§2) LMW cyclin E, but not full-length cyclin E, overexpressing MCF-7/Ac1 cells partially override the letrozole inhibition of AD-induced S-phase entry and AD-induced CDK2 protein levels. Since overexpression of LMW cyclin E deregulates the G1 to S transition, the inventors interrogated the role of full-length and LMW cyclin E in letrozole response. To this end, the inventors examined the sensitivity of cyclin E overexpressing MCF-7/Ac1 cells to the growth inhibitory effect of letrozole using adenoviruses to overexpress full-length and LMW cyclin E (FIGS. 24A-24D). MCF-7/Ac1 cells were cultured in charcoal stripped serum media (CSSM) for 4 days before infecting them with 4000 m.o.i. of either LacZ, full-length cyclin E (cyclin EL) or LMW cyclin E (cyclin E-T1 and cyclin E-T2). Twenty-four hours later, cells were left either untreated, treated with 25 nM AD alone, or treated with 25 nM AD plus 1 μM letrozole for an additional 3 days (FIGS. 24A-24B). Following the treatment, cells were enumerated or subjected to flow cytometry analysis.
# (§3) MCF-7/Ac1 cells were cultured in IMEM with 10% charcoal-stripped serum medium (CSSM) without phenol red and with 600 μg/ml of G418 for 4 days before plating. Triplicate wells of 6-well plates were then infected with the indicated adenoviruses (at 4000 m.o.i.) 24 hours before drug treatment. Cells were then left untreated (E2W, estrogen withdrawal) or treated with 25 nM AD (AD) or treated with 25 nM AD and 1 μM letrozole (AD+Let) and collected 3 days later for cell number. Cell growth is expressed as the percentage of the cells compared with the control cells (25 nM AD treated cells). […] MCF-7/Ac1 cells were treated as described in A, and collected for flow cytometry analysis. Histograms represent the S-phase fraction expressed as the percentage of the cells in S-phase compared with the control cells (25 nM AD treated cells). […] The same cell lysates as in A and B were subjected to western blot analysis (50 μg of protein) with cyclin E and CDK2 antibodies. The bar graph represents the densitometric values of the phosphorylated CDK2 bands. […] Left, MCF-7/Ac1 cells were cultured in IMEM with 10% charcoal-stripped serum medium (CSSM) without phenol red and with 600 μg/ml of G418 for 4 days before plating. Cells were then infected with the indicated adenoviruses (at 4000 m.o.i.) 24 hours before drug treatment. Cells were then treated with 25 nM AD and 1 μM letrozole and collected 3 days later for cell number. […] Columns, mean of two to three experiments, each in triplicates; bars, S.D.
# To directly address this question, MCF-7/Ac1 cells were cultured in charcoal stripped serum media (CSSM) for 4 days before adding medium with no virus or with 4000 m.o.i. of either LacZ, or LMW cyclin E (cyclin E-T1) adenoviruses. 24 hours later, cells were left untreated, treated with 25 nM AD alone, or treated with 25 nM AD plus 1 μM letrozole for 3 days (FIG. 24D). The AD-induced growth of MCF-7/Ac1 cells was inhibited by letrozole by 51% in uninfected cells and by 58% in LacZ infected cells while the growth of cyclin E-T1 infected cells was inhibited by only 20% (FIG. 24D, left).
# [4] = test system: MCF-7/Ac1 cells; experiment: S-phase fraction by flow cytometry of adenovirus-infected cells; details: 1 μM letrozole with 25 nM AD
# Procedure: as §1, §2, §3
smiles,measurement,setting,value
N#Cc1ccc(C(c2ccc(C#N)cc2)n2cncn2)cc1 [letrozole],cells in G0/G1,[1],61.2+/−1.5%
same,cells in S phase,[1],13.1+/−2.3%
same,concentration that blocked the AD-induced increase in cyclin E-associated kinase activity,[2],≤ 0.125 µM
same,inhibition of AD-induced growth,"[3]; 1 μM letrozole, cyclin EL, T1, and T2 infected cells, FIG. 24A",no significant growth inhibition
same,inhibition at 1 µM,"[3]; LacZ infected cells, FIG. 24A",56.1%
same,inhibition at 1 µM,"[3]; LacZ infected cells, FIG. 24D",58%
same,inhibition at 1 µM,"[3]; cyclin E-T1 infected cells, FIG. 24D",20%
same,inhibition at 1 µM,"[3]; uninfected cells, FIG. 24A",40.8%
same,inhibition at 1 µM,"[3]; uninfected cells, FIG. 24D",51%
same,decrease in number of cells in S phase,[4]; LacZ-infected cells,37%
same,decrease in number of cells in S phase,[4]; cyclin E-T1-infected cells,16%
same,decrease in number of cells in S phase,[4]; cyclin E-T2-infected cells,21%
same,decrease in number of cells in S phase,[4]; cyclin EL-infected cells,42%
same,decrease in number of cells in S phase,[4]; uninfected cells,62%
